In patent US12514251B2, “Fused heterocyclic compounds and their use as pest control agents” (priority 2020, dated 2026):

Assays:
Format in all cases: in vivo
[1] = system: Helicoverpa armigera; assay: Helicoverpa armigera, diet incorporation method; details: third instar larvae, 96 h after release, dead + moribund vs untreated control, read-out: percent mortality
Experimental: (§1) The diet incorporation method was used, in which the required quantity of the test compound was weighed and dissolved in a tube containing solvent solution. The tube was put on a vortex at 2000 rpm for 90 min for proper mixing. Semi-synthetic diet was incorporated into this solution when the temperature was approximately 50° C. in the bioassay containers. Compound and diet were stirred thoroughly for proper mixing and allowed to cool for 30 min. The solidified diet was cut into equal pieces, and then each piece was transferred into one cell of a bio-assay tray. A single starved third instar larva was released into each of the cells of the bioassay trays and the tray was covered with a lid. The bio-assay trays were then kept under laboratory conditions at a temperature of 25° C. and a relative humidity of 70%. Observations on dead, moribund and alive larvae were recorded 96 h after the release of the larvae. Percent mortality was calculated by combining dead and moribund larvae and comparing the result to the one of the untreated control.

[2] = system: Spodoptera litura; assay: Spodoptera litura, diet incorporation method; details: third instar larvae, 96 h after release, dead + moribund vs untreated control, read-out: percent mortality
Experimental: as §1, with “covered with the lid. The” for “covered with a lid. The”, “release of larvae. Percent” for “release of the larvae. Percent”

[3] = system: Plutella xylostella; assay: Plutella xylostella, leaf dip method; details: foliar, cabbage leaf dip, second instar larvae, 72 h after release, dead + moribund vs untreated control, read-out: percent mortality
Outline: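 Cabbage leaves were dipped for 10 s in compound diluted with 0.01% Triton-X, shade dried and offered singly to second instar larvae. Trays were held at 25° C. and 70% relative humidity. Dead plus moribund larvae were scored at 72 h, and percent mortality was expressed relative to untreated control.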

`CCS(=O)(=O)c1ccc(-n2cnc(C(F)(F)F)n2)nc1-c1ccn2nc(C(F)(F)F)cc2n1` [Compound 4, 5-(3-(ethylsulfonyl)-6-(3-(trifluoromethyl)-1H-1,2,4-triazol-1-yl)pyridin-2-yl)-2-(trifluoromethyl)pyrazolo[1,5-a]pyrimidine] was tested, and the mortality at 300 ppm [1] was at least 70%, the mortality at 300 ppm [2] was at least 70% and the mortality at 300 ppm [3] was at least 70%.
Work on `CCS(=O)(=O)c1cc(-c2ccc(Cl)cc2)cnc1-c1ccn2nc(C(F)(F)F)nc2n1` [Compound 101, 5-(5-(4-chlorophenyl)-3-(ethylsulfonyl)pyridin-2-yl)-2-(trifluoromethyl)-[1,2,4]triazolo[1,5-a]pyrimidine] yielded a mortality at 300 ppm [2] of at least 70% and a mortality at 300 ppm [3] of at least 70%.
Work on `CCS(=O)(=O)c1cc(-c2ccc(Cl)c(Cl)c2)cnc1-c1ccn2nc(C(F)(F)F)cc2n1` [Compound 155, 5-(5-(3,4-dichlorophenyl)-3-(ethylsulfonyl)pyridin-2-yl)-2-(trifluoromethyl)pyrazolo[1,5-a]pyrimidine] yielded a mortality at 300 ppm [1] of at least 70%, a mortality at 300 ppm [2] of at least 70% and a mortality at 300 ppm [3] of at least 70%.
`CCS(=O)(=O)c1cc(-c2cc(F)cc(F)c2)cnc1-c1ccn2nc(C(F)(F)F)cc2n1` [Compound 125, 5-(5-(3,5-difluorophenyl)-3-(ethylsulfonyl)pyridin-2-yl)-2-(trifluoromethyl)pyrazolo[1,5-a]pyrimidine] was tested, and the mortality at 300 ppm [2] was at least 70% and the mortality at 300 ppm [3] was at least 70%.
For `CCS(=O)(=O)c1cc(-c2ccn3nc(C(F)(F)F)cc3n2)cnc1-n1ccc(C(F)(F)F)n1` [Compound 37, 5-(5-(ethylsulfonyl)-6-(3-(trifluoromethyl)-1H-pyrazol-1-yl)pyridin-3-yl)-2-(trifluoromethyl)pyrazolo[1,5-a]pyrimidine], the mortality at 300 ppm [2] was at least 70% and the mortality at 300 ppm [3] was at least 70%.
With `CCS(=O)(=O)c1cc(-c2ncccn2)cnc1-c1ccn2nc(C(F)(F)F)cc2n1` [Compound 231, 5-(3-(ethylsulfonyl)-5-(pyrimidin-2-yl)pyridin-2-yl)-2-(trifluoromethyl)pyrazolo[1,5-a]pyrimidine] the mortality at 300 ppm [1] was at least 70%, the mortality at 300 ppm [2] was at least 70% and the mortality at 300 ppm [3] was at least 70%.
`CCS(=O)(=O)c1cc(OC(F)F)cnc1-c1ccn2nc(C(F)(F)F)cc2n1` [Compound 229, 5-(5-(difluoromethoxy)-3-(ethylsulfonyl)pyridin-2-yl)-2-(trifluoromethyl)pyrazolo[1,5-a]pyrimidine] was tested, and the mortality at 300 ppm [1] was at least 70% and the mortality at 300 ppm [3] was at least 70%.
`CCS(=O)(=O)c1ccc(-n2ncn(-c3cc(Cl)cc(Cl)c3)c2=O)nc1-c1ccn2nc(C(F)(F)F)cc2n1` [Compound 8, 4-(3,5-dichlorophenyl)-2-(5-(ethylsulfonyl)-6-(2-(trifluoromethyl)pyrazolo[1,5-a]pyrimidin-5-yl)pyridin-2-yl)-2,4-dihydro-3H-1,2,4-triazol-3-one] gave a mortality at 300 ppm [1] of at least 70% and a mortality at 300 ppm [3] of at least 70%.
Work on `CCS(=O)(=O)c1cc(C=CC2CC2)cnc1-c1ccn2nc(C(F)(F)F)cc2n1` [Compound 205, 5-(5-(2-cyclopropylvinyl)-3-(ethylsulfonyl)pyridin-2-yl)-2-(trifluoromethyl)pyrazolo[1,5-a]pyrimidine] yielded a mortality at 300 ppm [2] of at least 70% and a mortality at 300 ppm [3] of at least 70%.
For `CCS(=O)(=O)c1ccc(-n2ncn(-c3ccc(Cl)cc3)c2=O)nc1-c1ccn2nc(C(F)(F)F)cc2n1` [Compound 7, 4-(4-chlorophenyl)-2-(5-(ethylsulfonyl)-6-(2-(trifluoromethyl)pyrazolo[1,5-a]pyrimidin-5-yl)pyridin-2-yl)-2,4-dihydro-3H-1,2,4-triazol-3-one], the mortality at 300 ppm [1] was at least 70% and the mortality at 300 ppm [3] was at least 70%.
Compound `CCS(=O)(=O)c1ccc(-c2ccc(OC(F)(F)F)cc2)nc1-c1ccn2nc(C(F)(F)F)cc2n1` [Compound 17, 5-(3-(ethylsulfonyl)-6-(4-(trifluoromethoxy)phenyl)pyridin-2-yl)-2-(trifluoromethyl)pyrazolo[1,5-a]pyrimidine] has a mortality at 300 ppm [2] of at least 70% and a mortality at 300 ppm [3] of at least 70%.
`CCS(=O)(=O)c1cc(-c2ccn3nc(C(F)(F)F)cc3n2)cnc1-n1nc2ccc(C(F)(F)F)cn2c1=O` [Compound 75, 2-(3-(ethylsulfonyl)-5-(2-(trifluoromethyl)pyrazolo[1,5-a]pyrimidin-5-yl)pyridin-2-yl)-6-(trifluoromethyl)-[1,2,4]triazolo[4,3-a]pyridin-3(2H)-one] gave a mortality at 300 ppm [1] of at least 70% and a mortality at 300 ppm [3] of at least 70%.
`CCS(=O)(=O)c1cc(-c2cc(Cl)cc(Cl)c2)cnc1-c1ccn2nc(C(F)(F)F)cc2n1` [Compound 76, 5-(5-(3,5-dichlorophenyl)-3-(ethylsulfonyl)pyridin-2-yl)-2-(trifluoromethyl)pyrazolo[1,5-a]pyrimidine] gave a mortality at 300 ppm [1] of at least 70% and a mortality at 300 ppm [2] of at least 70%.
Compound `CCS(=O)(=O)c1cc(-c2ccnn2C)cnc1-c1ccn2nc(C(F)(F)F)cc2n1` [Compound 71, 5-(3-(ethylsulfonyl)-5-(1-methyl-1H-pyrazol-5-yl)pyridin-2-yl)-2-(trifluoromethyl)pyrazolo[1,5-a]pyrimidine] has a mortality at 300 ppm [3] of at least 70%.
With `CCSc1ccc(-n2cncn2)nc1-c1cnc2cc(C(F)(F)F)nn2c1` [Compound 40, 6-(3-(ethylthio)-6-(1H-1,2,4-triazol-1-yl)pyridin-2-yl)-2-(trifluoromethyl)pyrazolo[1,5-a]pyrimidine] the mortality at 300 ppm [3] was at least 70%.
`CCS(=O)(=O)c1cc(-n2cc(F)cn2)cnc1-c1ccn2nc(C(F)(F)F)cc2n1` [Compound 70, 5-(3-(ethylsulfonyl)-5-(4-fluoro-1H-pyrazol-1-yl)pyridin-2-yl)-2-(trifluoromethyl)pyrazolo[1,5-a]pyrimidine] was tested, and the mortality at 300 ppm [1] was at least 70% and the mortality at 300 ppm [3] was at least 70%.
`CCS(=O)(=O)c1ccc(-n2ccc(C(F)(F)F)n2)nc1-c1ccn2nc(C(F)(F)F)cc2n1` [Compound 34, 5-(3-(ethylsulfonyl)-6-(3-(trifluoromethyl)-1H-pyrazol-1-yl)pyridin-2-yl)-2-(trifluoromethyl)pyrazolo[1,5-a]pyrimidine] was tested, and the mortality at 300 ppm [1] was at least 70% and the mortality at 300 ppm [3] was at least 70%.
For `CCS(=O)(=O)c1cc(-c2cc(F)cc(F)c2)cnc1-c1ccn2nc(C(F)(F)F)nc2n1` [Compound 103, 5-(5-(3,5-difluorophenyl)-3-(ethylsulfonyl)pyridin-2-yl)-2-(trifluoromethyl)-[1,2,4]triazolo[1,5-a]pyrimidine], the mortality at 300 ppm [3] was at least 70%.
Compound `CCS(=O)(=O)c1ccc(-c2ccc(F)cc2)nc1-c1ccn2nc(C(F)(F)F)cc2n1` [Compound 16, 5-(3-(ethylsulfonyl)-6-(4-fluorophenyl)pyridin-2-yl)-2-(trifluoromethyl)pyrazolo[1,5-a]pyrimidine] has a mortality at 300 ppm [3] of at least 70%.
In the case of `CCS(=O)(=O)c1ccc(-c2ccc(Cl)cc2)nc1-c1ccn2nc(C(F)(F)F)cc2n1` [Compound 20, 5-(6-(4-chlorophenyl)-3-(ethylsulfonyl)pyridin-2-yl)-2-(trifluoromethyl)pyrazolo[1,5-a]pyrimidine], the mortality at 300 ppm [3] is reported as at least 70%.
`CCS(=O)(=O)c1cc(-c2ccc(F)cc2)cnc1-c1ncc2nc(C(F)(F)F)n(C)c2n1` [Compound 118, 2-(3-(ethylsulfonyl)-5-(4-fluorophenyl)pyridin-2-yl)-9-methyl-8-(trifluoromethyl)-9H-purine] showed a mortality at 300 ppm [3] of at least 70%.
With `CCS(=O)(=O)c1cc(C2CCC2)cnc1-c1ccn2nc(C(F)(F)F)cc2n1` [Compound 213, 5-(5-cyclobutyl-3-(ethylsulfonyl)pyridin-2-yl)-2-(trifluoromethyl)pyrazolo[1,5-a]pyrimidine] the mortality at 300 ppm [3] was at least 70%.
Compound `CCS(=O)(=O)c1cc(C2CC2)cnc1-c1ccn2nc(C(F)(F)F)nc2n1` [Compound 142, 5-(5-cyclopropyl-3-(ethylsulfonyl)pyridin-2-yl)-2-(trifluoromethyl)-[1,2,4]triazolo[1,5-a]pyrimidine] has a mortality at 300 ppm [3] of at least 70%.
With `CCSc1ccc(C)nc1-c1ccn2nc(C(F)(F)F)nc2n1` [Compound 187, 5-(3-(ethylthio)-6-methylpyridin-2-yl)-2-(trifluoromethyl)-[1,2,4]triazolo[1,5-a]pyrimidine] the mortality at 300 ppm [3] was at least 70%.
Work on `CCSc1cc(-c2ccc(F)cc2)cnc1-c1ccn2nc(C(F)(F)F)cc2n1` [Compound 190, 5-(3-(ethylthio)-5-(4-fluorophenyl)pyridin-2-yl)-2-(trifluoromethyl)pyrazolo[1,5-a]pyrimidine] yielded a mortality at 300 ppm [3] of at least 70%.
In the case of `CCS(=O)(=O)c1cc(-c2cc(F)cc(Cl)c2)cnc1-c1ncc2nc(C(F)(F)F)n(C)c2n1` [Compound 131, 2-(5-(3-chloro-5-fluorophenyl)-3-(ethylsulfonyl)pyridin-2-yl)-9-methyl-8-(trifluoromethyl)-9H-purine], the mortality at 300 ppm [3] is reported as at least 70%.
`CCS(=O)(=O)c1ccc(O)nc1-c1ccn2nc(C(F)(F)F)cc2n1` [Compound 236, 5-(ethylsulfonyl)-6-(2-(trifluoromethyl)pyrazolo[1,5-a]pyrimidin-5-yl)pyridin-2-ol] showed a mortality at 300 ppm [3] of at least 70%.
